# Test results published in patent US20190252042A1, “INDENTIFICATION AND ANTIBIOTIC CHARACTERIZATION OF PATHOGENS IN METAGENOMIC SAMPLE” (BIOMÉRIEUX, priority 2016, published 2019).
# What was measured:
# E aerogenes = test: Antibiotic Susceptibility Testing (AST) profile by classical microbiology, BAL sample 1; format: cell-based; settings: positive BAL metagenomic sample 1, pathogen E aerogenes
# Excerpt: Three validation studies of the metagenomic analysis according to the invention have been done. The first validation study relies on in silico simulated metagenomes (validation study 1), the second validation study is a set of 3 positive miniBAL metagenomic samples for which only the culture identification is available (validation study 2), and the third validation study is a set 2 positive BAL metagenomic samples with identification and AST profiles available (validation study 3). For all the evaluation, Kraken is used for taxonomic binning and ARD binning (steps 22, 24) and IDBA-UD is used for assembly (step 28).
# In Table 3, one notes that both pipelines give very similar results and results coherent with classical microbiology, at least for identification results. Both pipelines give similar results, probably because the ARD retrieved are present in the reference sequences of the 2 pathogens, ie. AmpC must be present in the reference sequences of E. aerogenes, and ANT(9)-1A in the reference sequences of S aureus.
# S aureus = test: Antibiotic Susceptibility Testing (AST) profile by classical microbiology, BAL sample 2; format: cell-based; settings: positive BAL metagenomic sample 2, pathogen S aureus
Molecule,AST profile (E aerogenes),AST profile (S aureus)
O=C(O)[C@H]1/C(=C/CO)O[C@@H]2CC(=O)N21 [clavunalate],"resistance: amoxiciline, clavunalate",–
CO/N=C(\C(=O)N[C@@H]1C(=O)N2C(C(=O)O)=C(COC(N)=O)CS[C@H]12)c1ccco1 [cefuroxime],intermediate resistance: cefuroxime,–
peniciline,–,"resistance: peniciline, clindamycine"
CC1(C)S[C@@H]2[C@H](NC(=O)[C@H](N)c3ccc(O)cc3)C(=O)N2[C@H]1C(=O)O [amoxiciline],"resistance: amoxiciline, clavunalate",–
